As usually defined, the Ki is a dissociation constant, usually derived from enzyme kinetics or from competition with a known ligand. Broadly, the EC50 is the midpoint of the concentration-response curve.

The target of assay [1] is influenza A virus N1 sialidase [A/HongKong/156/97 (H5N1)] wild type (Influenza A virus, UniProt Q9W7Y7). As to the kind of experiment: biochemical.
Assay [2] concerns the target influenza A virus N2 sialidase [A/Paris/908/97 (H3N2)] (Influenza A virus, UniProt Q9EA36). In kind it is biochemical.
Assay [3] relates to A/Paris/0497/2007 (H1N1, H274). Nature of the assay: microbe, parasite or virus in culture. In kind it is cell-based, influenza virus. To be noted: for EC50: Influenza A virus, H1N1, 72 h, read-out: EC50, 50% reduction of the average plaque diameter.
The subject of assay [4] is A/Paris/908/97 (H3N2). Nature of the assay: microbe, parasite or virus in culture. The format is cell-based, influenza virus. To be noted: for EC50: Influenza A virus, H3N2, 72 h, read-out: EC50, 50% reduction of the average plaque diameter.

Each structure is given as a SMILES string.

With `CC(=O)N[C@H]1[C@H]([C@H](O)[C@H](O)CO)OC(C(=O)O)=C[C@@H]1O` [Neu5Ac2en, reference compound], the inhibition constant Ki turned out to be 970 ± 150 nM in assay [1] and 1240 ± 230 nM in assay [2]. Also, the concentration for a half-maximal effect (EC50) in assay [3] and in assay [4] was 20 µM in each case.

With `C=CCC1=C(C(=O)O)O[C@@H]([C@H](O)[C@H](O)CO)[C@H](NC(C)=O)[C@H]1O` [Compound 7, 5-Acetamido-2,6-anhydro-3,5-dideoxy-3-C-(prop-2′-enyl)-D-glycero-D-galacto-non-2-en-onic acid], the concentration giving a half-maximal response (EC50) in assay [3] was 1800 µM; in assay [4] it was above 5000 µM.

For `CC(=O)NC1C(O)C(CC=Cc2ccc(C)cc2)=C(C(=O)O)OC1C(O)C(O)CO` (stereo not shown) [Compound 9d], in assay [3], the “change in plaque size” value was “significant decrease in plaque size” and the EC50 came out at 80 µM. In addition, in assay [4], the “change in plaque size” value is given as “little or no visible difference in plaque size” and the EC50 was above 1000 µM.

Values taken from patent US20120202877A1 (priority 2009, published 2012).
